# Assay results reported in patent US20240197760A1, “ACTIVATORS OF INTEGRATED STRESS RESPONSE PATHWAY FOR PROTECTION AGAINST FERROPTOSIS” (Burke Neurological Institute, priority 2021, published 2024).
# *1 amine or outer side, *2 acyl side, *3 side chain or, on linkers, in order; H or OH if unused. Where a SMILES comes first, the peptide text is derived from it. Bridges are numbered along the chain shown (N, C = ends). Roman numbers before positions name the chains, in order. [ ]: non-standard residue; d: D form. Actinocin(9to1) = Cc1c2oc3c(C)ccc(C(=O)[*:1])c3nc-2c(C(=O)[*:2])c(N)c1=O; NMeV = CN[C@H](C(=O)O)C(C)C; Sar = CNCC(=O)O
# Experiments:
# [1] = system: Trib3, Chac1, Bip; test: Expression of ATF4 target genes and chaperone Bip in mouse primary neurons; type: cell-based; details: for effect on glucosamine induced expression of Trib3: co-treatment with glucosamine, primary neurons
# Method: (§1) Total RNA was extracted from primary cortical neurons using NucleoSpin RNA II Kit (Clontech, Catalog number—740955-250). Thereafter, using the Taqman RNA-to-Ct, one step kit (Thermo Fisher Scientific, catalog number—4392938) and following the manufacturer's instructions, […] from each sample was mixed with the Taqman® Gene Expression Master Mix and Taqman® Gene Expression Assays for Creb1 (Catalog number—Mm00501607_m1), Bdnf (Catalog number—Mm04230607_s1), Rbbp4 (Catalog number—Mm00771401_g1), Bip (Catalog number—Mm00517691_m1), Trib3 (Catalog number—Mm00454879_m1), and Chac1 (Catalog number—Mm00509926_m1) with FAM labelled probe and Actin with VIC labelled probe all from Thermo Fisher Scientific on an Applied Biosystems 7500 Fast Real Time PCR System. For assessing gene expression of various specific Bdnf exons in mouse primary neurons, two step qPCR was used. Total RNA from primary cortical neurons was extracted using NucleoSpin RNA II Kit (Clontech, Catalog number—740955-250) and a total of 1.5 μg RNA was used to synthesize cDNA with the SuperScript® III First-Strand Synthesis System (Thermo Fisher Scientific, Catalog number—18080051). Quantitative RT-PCR was then performed using SYBR green (Thermo Fisher Scientific, Catalog number—4309155) on an Applied Biosystems 7500 Fast Real Time PCR System. Quantitative levels for all genes were normalized to the housekeeping gene GAPDH and expressed relative to the relevant control samples as fold change. The sequences of primers used in this part of the study were as follows: Bdnf I forward: […] (SEQ ID NO:9) and Bdnf I reverse: […] (SEQ ID NO:10); Bdnf II forward: […] (SEQ ID NO:11) and Bdnf II reverse: […] (SEQ ID NO:12); Bdnf IV forward #2: […] (SEQ ID NO:13) and Bdnf IV reverse #2: […] (SEQ ID NO:14); Bdnf VI forward: […] (SEQ ID NO:15) and Bdnf VI reverse: […] (SEQ ID NO:16); Bdnf VII forward: […] (SEQ ID NO:17) and Bdnf VII reverse: […] (SEQ ID NO:18) Bdnf IX forward: […] (SEQ ID NO:19) and Bdnf IX reverse: […] (SEQ ID NO:20); Gapdh forward #2: […] (SEQ ID NO:21) and Gapdh reverse #2: […] (SEQ ID NO: 22).
# [2] = system: Creb1, Bdnf, Rbbp4; test: Plasticity gene expression by quantitative real time PCR in mouse primary neurons; type: cell-based; details: for effect on 2-DG led increase in Bdnf gene expression: increasing concentrations co-treated with 2-DG
# Method: Primary immature neuronal cultures were prepared from cerebral cortex of E14 embryos (day 14 of gestation) of CD1 mice under sterile conditions. Dissected cortices were incubated at 37° C. for 20 min in EBSS solution containing papain, L-cystine and EDTA, which was activated at 37 °C for 30 min and then was filtered through […] (Millipore, catalog number—SCGP00525). Cortices were then mechanically dissociated by trituration with glass pipettes. The rDNase was added in dissociated cells followed by incubation of these dissociated cells at 37 °C for 3 min. Thereafter, these cells were centrifuged at 2800 rpm for 5 min. Then supernatant was discarded, and cell were resuspended gently in a 5 ml mixture of EBSS and 10/10 solution (4:1 ratio). Then 5 ml of 10/10 solution was added gently on top and these resuspended cells were centrifuged at 2800 rpm for 10 min. Supernatant was again discarded and cells were resuspended in 10 ml MEM, Glutamax supplement (Thermo Fisher Scientific, Catalog number—41090036) containing 10% heat inactivated fetal bovine serum (Thermo Fisher Scientific, Catalog number—16140071), 5% heat inactivated horse serum (Thermo Fisher Scientific, Catalog number—26050088), and 1% penicillin/streptomycin (Thermo Fisher Scientific, Catalog number—15140122). Thereafter, resuspended cells were filtered through 70-micron cell strainer (Thomas Scientific, catalog number—4620F02) followed by their counting through Hemocytometer. Cells were, finally, plated at the density of 1 million cells/ml onto poly-D-Lysine (PDL; Sigma Aldrich, catalog number—P6407-10X5MG) coated pates and placed in CO2-buffered incubators at 37° C.
# as §1
# [3] = system: Trib3 promoter, Bdnf promoter; test: Promoter reporter luciferase assay in primary neurons; type: cell-based, mouse; details: 5 μM co-treated with 2-DG 10 mM, 9 h
# Method: Primary neurons were co-transfected with various plasmids such as different Bdnf exon promoters each tagged with firefly luciferase or Trib3 promoter tagged with firefly luciferase and pTK-renilla luciferase plasmid at 1:10 ratio using Lipofectamine 2000 (Thermo Fisher Scientific, catalog number—11668019) according to the manufacturer's instructions to control for transfection efficiency. […] Thereafter, luciferase activity was measured using dual luciferase assay kit (Promega) and bioluminometer (MDS Analytical Technologies). Final luciferase activity was calculated by normalizing firefly luciferase activity with Renilla luciferase activity and then the valued were converted to fold change with respect to control.
# [4] = system: Bdnf; test: Bdnf gene expression in hippocampal slices submerged in ACSF; parameters: species or system mouse; details: 1 μg/ml with 2-DG 10 mM in ACSF
# [5] = system: hippocampal slices; test: Long term potentiation (fEPSP) in submerged hippocampal slices; parameters: species or system mouse; details: 1 μg/ml with 2-DG 10 mM, 6 h, hippocampal slices
# From the text: Brains were quickly removed from mice sacrificed by cervical dislocation and placed in cold artificial cerebrospinal fluid (ACSF) (bubbled with 95% O2/5% CO2) containing (in mM): 124 NaCl, 4 KCl, 1 Na2HPO4, 25 NaHCO3, 2 CaCl2, 2 MgCl2, and 10 glucose. The pH and osmolarity of the solution were 7.4 and 310 mOsm/L, respectively. The hippocampus was isolated and placed on a mechanical tissue chopper to produce transverse hippocampal slices of 400 μm thickness. […] Hippocampal slices were allowed to recover for at least 90 min prior to beginning the experiment. For recordings, glass electrodes were filled with ACSF and positioned in the CA1 stratum radiatum to record fEPSPs evoked by local stimulation (0.1 ms) of Schaffer collateral fibers using a bipolar concentric electrode placed laterally to the recording electrode (˜150 μm). For LTP recordings, the voltage intensity of the stimulation test pulse (square pulse, 100 us duration) for each slice was determined to be the voltage intensity that had generated 30-40% of the maximum slope obtained using input-output relationships. Facilitation was calculated as the ratio of the slopes of the second and first fEPSPs, and plotted as a function of the inter-pulse duration. For LTP, a test pulse was applied every minute. […] Residual potentiation was calculated as the average of the last 15 min of 2 h of recordings.
# [6] = 3 μM, 6 h, mouse primary neurons
# [7] = 5 μM co-treated with 2-DG 10 mM, 9 h
compound,measurement,setting,value
tunicamycin,gene expression of chaperone Bip,[1]; [6],increase
same,expression of plasticity genes Creb1 and Bdnf,[2]; [6],increase
O=C[C@@H](O)[C@@H](O)[C@H](O)[C@H](O)CO [D-mannose],effect on 2-DG led increase in Bdnf gene expression,"[2]; 6 h, mouse primary neurons",decreased 2-DG led increase in Bdnf gene expression in a dose dependent manner
O=C[C@H](O)[C@@H](O)[C@H](O)[C@H](O)CO [D-glucose],effect on 2-DG led increase in Bdnf gene expression,"[2]; 6 h, mouse primary neurons",decreased 2-DG led increase in Bdnf gene expression in a dose dependent manner
N[C@H]1C(O)O[C@H](CO)[C@@H](O)[C@@H]1O (stereo partly shown) [glucosamine],glucosamine induced expression of plasticity genes in combination with actinomycin D,"[2]; 6 h, mouse immature primary neurons",transcription dependent
same,"expression of plasticity genes Creb1, Bdnf and Rbbp4 (mRNA)","[2]; increasing concentrations, 6 h, mouse primary neurons",dose dependent increase
"Cn1cc(-c2ccc3c(c2)CCN3C(=O)Cc2cccc(C(F)(F)F)c2)c2c(N)ncnc21 [GSK2606414, 7-methyl-5-(1-{[3-(trifluoromethyl)phenyl]acetyl}-2,3-dihydro-1H-indol-5-yl)-7H-pyrrolo[2,3-d]pyrimidin-4-amine]",effect on 2-DG led increase in Trib3 expression (mRNA),[1]; [7],completely blocked
same,effect on glucosamine induced expression of Trib3,[1],blocked
same,effect on glucosamine induced expression of Trib3,[1]; listed as PERK inhibitor I,completely blocked
same,effect on 2-DG led increase in Bdnf promoter activity,[3],blocked
same,effect on 2-DG led increase in Trib3 promoter activity,[3],completely blocked
same,effect on 2-DG led increase in Bdnf expression (mRNA),[2]; [7],blocked
same,effect on glucosamine led increase in Bdnf gene expression,"[2]; co-treatment with glucosamine, primary neurons",blocked
"Cc1c2oc3c(C)ccc(C(=O)N[C@@H]4C(=O)N[C@H](C(C)C)C(=O)N5CCC[C@H]5C(=O)N(C)CC(=O)N(C)[C@@H](C(C)C)C(=O)O[C@@H]4C)c3nc-2c(C(=O)N[C@@H]2C(=O)N[C@H](C(C)C)C(=O)N3CCC[C@H]3C(=O)N(C)CC(=O)N(C)[C@@H](C(C)C)C(=O)O[C@@H]2C)c(N)c1=O [ActD, actinomycin D] (I: T[dV]P[Sar][NMeV] / II: T[dV]P[Sar][NMeV]; ester I:1-I:C, II:1-II:C; linker I:N-II:N via Actinocin(9to1))",effect on 2-DG led increase in Bdnf gene expression in hippocampal slices,[4],able to block
same,effect on 2-DG led induction in LTP,[5],completely blocked
same,"effect on 2-DG led increase in plasticity genes Creb1, Bdnf and Rbbp4","[2]; co-treatment with 2-DG, 6 h, mouse immature primary neurons",completely blocked
